Calls of active or inactive are those of the source. No cut-off for these calls is given here.

Results on eleven compounds are retold here after ChEMBL document CHEMBL4033674, “Bivalent O-glycoside mimetics with S/disulfide/Se substitutions and aromatic core: Synthesis, molecular modeling and inhibitory activity on biomedically relevant lectins in assays of increasing physiological relevance” (Bioorg Med Chem, 2017).

Test [1] has as its target Galectin-1 (Homo sapiens) (UniProt P09382). Description: Inhibition of biotinylated proto type galectin-1 in human Capan-1 cells after 30 mins by FACS analysis relative to control. Format: cell-based. (In general: Flow cytometry measures light scatter and fluorescence of single cells or particles in a stream.)
The target in test [2] is Galectin-3 (Homo sapiens) (UniProt P17931). Description: Inhibition of biotinylated chimera type galectin-3 in human Capan-1 cells after 30 mins by FACS analysis relative to control. The test is classed as cell-based.
Test [3] concerns the target T1, Galectin-8 (Homo sapiens) (UniProt O00214).
T1 sequence (whole entry): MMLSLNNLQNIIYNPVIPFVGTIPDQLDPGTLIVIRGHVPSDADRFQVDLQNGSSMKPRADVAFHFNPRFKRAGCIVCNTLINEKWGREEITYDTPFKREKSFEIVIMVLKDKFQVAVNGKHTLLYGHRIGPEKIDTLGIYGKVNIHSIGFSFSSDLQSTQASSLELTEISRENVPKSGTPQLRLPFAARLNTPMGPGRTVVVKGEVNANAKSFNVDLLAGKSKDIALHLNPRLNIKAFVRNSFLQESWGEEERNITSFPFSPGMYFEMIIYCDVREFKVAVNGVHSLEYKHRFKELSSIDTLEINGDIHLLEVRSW
Description: Inhibition of biotinylated tandem repeat type galectin-8 in human Capan-1 cells after 30 mins by FACS analysis relative to control. Format: cell-based.

The target in a further test is Galectin-3 (Mus musculus, UniProt P16110). Description: Inhibition of galectin-3 in C57BL/6 mouse jejunum using SK-5100 as substrate incubated for 30 mins by VAA staining based microscopic analysis.
The target in test [4] is T2, Galectin-8 (Mus musculus) (UniProt Q9JL15).
T2 sequence (whole entry): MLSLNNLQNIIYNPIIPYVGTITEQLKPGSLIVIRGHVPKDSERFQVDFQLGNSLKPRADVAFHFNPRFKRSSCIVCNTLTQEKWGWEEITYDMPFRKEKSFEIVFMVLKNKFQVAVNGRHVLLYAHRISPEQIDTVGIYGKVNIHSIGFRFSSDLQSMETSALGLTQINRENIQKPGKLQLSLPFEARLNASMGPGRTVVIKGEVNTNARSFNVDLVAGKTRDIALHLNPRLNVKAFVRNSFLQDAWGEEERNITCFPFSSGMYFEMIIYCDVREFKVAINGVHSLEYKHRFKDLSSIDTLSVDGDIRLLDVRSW
Description: Inhibition of galectin-8 in C57BL/6 mouse jejunum using SK-5100 as substrate incubated for 30 mins by VAA staining based microscopic analysis relative to free lactose.

A short description of test [5]: Inhibition of lectin in C57BL/6 mouse kidney using SK-5100 as substrate incubated for 30 mins by VAA staining based microscopic analysis.
Test [6] concerns the target Galectin-1 (Mus musculus) (UniProt P16045). Description: Inhibition of galectin-1 in C57BL/6 mouse jejunum using SK-5100 as substrate incubated for 30 mins by VAA staining based microscopic analysis relative to free lactose.

Galectin-3 (Homo sapiens), sequence (P17931 whole entry): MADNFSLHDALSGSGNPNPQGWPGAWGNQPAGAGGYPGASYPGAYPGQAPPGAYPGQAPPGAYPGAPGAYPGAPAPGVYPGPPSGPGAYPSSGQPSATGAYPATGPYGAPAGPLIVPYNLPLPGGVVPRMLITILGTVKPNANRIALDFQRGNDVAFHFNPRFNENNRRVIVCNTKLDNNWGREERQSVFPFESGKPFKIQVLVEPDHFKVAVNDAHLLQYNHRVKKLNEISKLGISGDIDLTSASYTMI
Galectin-1 (Homo sapiens), sequence (P09382 whole entry): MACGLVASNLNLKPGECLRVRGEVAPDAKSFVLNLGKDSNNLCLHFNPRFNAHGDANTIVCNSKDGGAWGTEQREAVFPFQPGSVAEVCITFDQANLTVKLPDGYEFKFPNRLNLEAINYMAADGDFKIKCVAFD
Galectin-3, sequence (P16110 whole entry): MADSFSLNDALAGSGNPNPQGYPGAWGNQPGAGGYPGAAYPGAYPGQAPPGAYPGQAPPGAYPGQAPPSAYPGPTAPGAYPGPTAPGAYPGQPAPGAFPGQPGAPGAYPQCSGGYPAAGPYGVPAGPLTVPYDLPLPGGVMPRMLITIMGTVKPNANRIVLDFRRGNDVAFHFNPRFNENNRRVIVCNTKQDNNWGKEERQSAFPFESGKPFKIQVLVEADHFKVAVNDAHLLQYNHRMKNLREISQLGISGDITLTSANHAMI
Galectin-1 (Mus musculus), sequence (P16045 whole entry): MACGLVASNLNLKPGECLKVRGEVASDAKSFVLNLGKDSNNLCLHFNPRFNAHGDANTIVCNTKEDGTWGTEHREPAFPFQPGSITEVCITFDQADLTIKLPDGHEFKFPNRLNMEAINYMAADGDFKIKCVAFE

For `OC[C@H]1O[C@@H]([Se]Cc2cccc(C[Se][C@@H]3O[C@H](CO)[C@H](O)[C@H](O)[C@H]3O)c2)[C@H](O)[C@@H](O)[C@H]1O`, the fold change (FC) in test [1], in test [2] and in test [3] was 2.5 to 10 each time.

In the case of `OC[C@H]1O[C@@H]([Se]Cc2ccc(C[Se][C@@H]3O[C@H](CO)[C@H](O)[C@H](O)[C@H]3O)cc2)[C@H](O)[C@@H](O)[C@H]1O`, the fold change (FC) in test [1], in test [2] and in test [3] was 2.5 to 10 throughout.

For orientation: IC50 means the concentration needed to halve the response being measured. Consider `OC[C@H]1O[C@@H](O[C@H]2[C@H](O)[C@@H](O)[C@H](SCc3ccc(CS[C@@H]4O[C@H](CO)[C@@H](O[C@@H]5O[C@H](CO)[C@H](O)[C@H](O)[C@H]5O)[C@H](O)[C@H]4O)c4ccccc34)O[C@@H]2CO)[C@H](O)[C@@H](O)[C@H]1O`, for which the inhibition result in test [1], in test [2] and in test [3] was “inactive” throughout. Further, on Galectin-3, the IC50 came out at 50 µM. In test [4], this compound yielded a fold change (FC) of 50.

`O=C[C@H](O)[C@@H](O)[C@@H](O)[C@H](O)CO` [GALACTOSE]: in test [5], half-maximal inhibition (IC50) was put at 5000 µM.

With `OC[C@H]1O[C@@H](O[C@H]2[C@H](O)[C@@H](O)[C@H](SSCc3ccc(CSS[C@@H]4O[C@H](CO)[C@@H](O[C@@H]5O[C@H](CO)[C@H](O)[C@H](O)[C@H]5O)[C@H](O)[C@H]4O)c4ccccc34)O[C@@H]2CO)[C@H](O)[C@@H](O)[C@H]1O`, the inhibition result in test [1], in test [2] and in test [3] was “Active” throughout. For the same compound, 25 µM corresponded to half-maximal inhibition against Galectin-3 (IC50). Further, the fold change (FC) in test [6] was 6; in test [4] it was 100.

Consider `OC[C@H]1O[C@@H]([Se]Cc2ccc(C[Se][C@@H]3O[C@H](CO)[C@H](O)[C@H](O)[C@H]3O)c3ccccc23)[C@H](O)[C@@H](O)[C@H]1O`, for which the fold change (FC) in test [1], in test [2] and in test [3] was 2.5 to 10 in each case.

Regarding `OC[C@H]1O[C@@H]([Se]Cc2cccc3c(C[Se][C@@H]4O[C@H](CO)[C@H](O)[C@H](O)[C@H]4O)cccc23)[C@H](O)[C@@H](O)[C@H]1O`, the fold change (FC) in test [1], in test [2] and in test [3] was 2.5 to 10 each time.

With `OC[C@H]1O[C@@H]([Se]Cc2ccc3cc(C[Se][C@@H]4O[C@H](CO)[C@H](O)[C@H](O)[C@H]4O)ccc3c2)[C@H](O)[C@@H](O)[C@H]1O`, the fold change (FC) in test [1], in test [2] and in test [3] was 2.5 to 10 each time. Further, the IC50 in test [5] was in the range of 500 to 1000 µM.

Consider `OC[C@H]1O[C@@H](SSCc2cccc3c(CSS[C@@H]4O[C@H](CO)[C@H](O)[C@H](O)[C@H]4O)cccc23)[C@H](O)[C@@H](O)[C@H]1O`, for which the fold change (FC) in test [1], in test [2] and in test [3] was 2.5 to 10 throughout.

Turning to `OC[C@H]1O[C@@H](SCc2ccc(CS[C@@H]3O[C@H](CO)[C@H](O)[C@H](O)[C@H]3O)c3ccccc23)[C@H](O)[C@@H](O)[C@H]1O`, the fold change (FC) in test [1], in test [2] and in test [3] was 2.5 to 10 throughout.

Take `OC[C@H]1O[C@@H](SSCc2ccc(CSS[C@@H]3O[C@H](CO)[C@H](O)[C@H](O)[C@H]3O)c3ccccc23)[C@H](O)[C@@H](O)[C@H]1O`: the fold change (FC) in test [1], in test [2] and in test [3] was 2.5 to 10 in each case. Besides, the IC50 in test [5] lay within 500 to 1000 µM.
